Earlier results in patent publication US8962847B2, “Multicomponent crystals made of ([2-amino-6-(4-fluoro-benzylamino)-pyridin-3-yl]-carbamic acid ethyl ester and an arylpropionic acid” (TEVA GmbH, priority 2010, dated 2015).
Where a name gives a salt, the structure may show the parent alone. Read-outs that look alike come from different tables or passages of the source.

Legend:
[1] = test system: antinociceptive (pain perception inhibiting) activity; settings: mice, flupirtine maleate 15 mg per kg with various dosages of NSAIDS
[2] = test system: antinociceptive (pain perception inhibiting) activity; settings: rat, flupirtine maleate 35 mg per kg with various dosages of NSAIDS
[3] = test system: pain, fever, inflammation; settings: in vivo

SMILES	effect on the antinociceptive activity of paracetamol, acetyl salicylic acid, and diclofenac [1]	effect on the antinociceptive activity of paracetamol, acetyl salicylic acid, and diclofenac [2]	beginning of action compared with the racemic mixture of ibuprofen [3]
CCOC(=O)Nc1ccc(NCc2ccc(F)cc2)nc1N [flupirtine maleate]	enhances	enhances	
CC(C)Cc1ccc([C@H](C)C(=O)O)cc1 [dexibuprofen, (+)-(2S)-2-[4-(2-methylpropyl)-phenyl]propanoic acid]			somewhat faster
